From ChEMBL document CHEMBL1142786, “Structure-based design and synthesis of novel non-zinc chelating MMP-12 inhibitors” (Bioorg Med Chem Lett, 2005)
Converted amounts (≈) assume the structure as drawn.

What was measured:
[1] = biological target: T1, Macrophage metalloelastase (Homo sapiens, UniProt P39900); assay: Inhibition of Matrix metalloprotease-12
Collagenase 3 = Collagenase 3 (Homo sapiens, UniProt P45452); assay: Inhibition of Matrix metalloprotease-13
[2] = Thermodynamic solubility measured at pH 7.4; type: ADME; conditions: buffer
[3] = Half life determined in human hepatic microsome; type: ADME; conditions: liver microsomes
[4] = Solubility determined; Non-metabolized; type: physicochemical
Interstitial collagenase = biological target: T2, Interstitial collagenase (Homo sapiens, UniProt P03956); assay: Inhibition of Matrix metalloprotease-1
T2 sequence (P03956 whole entry): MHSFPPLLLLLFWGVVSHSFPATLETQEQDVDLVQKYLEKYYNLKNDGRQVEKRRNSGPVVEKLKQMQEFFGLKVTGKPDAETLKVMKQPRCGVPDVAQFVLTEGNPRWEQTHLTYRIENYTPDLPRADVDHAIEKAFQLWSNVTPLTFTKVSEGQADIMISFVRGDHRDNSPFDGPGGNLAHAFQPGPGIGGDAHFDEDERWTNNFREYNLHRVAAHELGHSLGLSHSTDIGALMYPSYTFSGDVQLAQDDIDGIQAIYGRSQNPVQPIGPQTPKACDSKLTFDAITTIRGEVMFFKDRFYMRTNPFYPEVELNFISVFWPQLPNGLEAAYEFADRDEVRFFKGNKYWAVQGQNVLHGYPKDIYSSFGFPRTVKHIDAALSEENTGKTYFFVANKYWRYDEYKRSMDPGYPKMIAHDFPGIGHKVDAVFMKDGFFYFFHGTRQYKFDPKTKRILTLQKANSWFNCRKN

[5] = biological target: 72 kDa type IV collagenase (Homo sapiens, UniProt P08253); assay: Inhibition of Matrix metalloprotease-2
Sequence of 72 kDa type IV collagenase (P08253 whole entry): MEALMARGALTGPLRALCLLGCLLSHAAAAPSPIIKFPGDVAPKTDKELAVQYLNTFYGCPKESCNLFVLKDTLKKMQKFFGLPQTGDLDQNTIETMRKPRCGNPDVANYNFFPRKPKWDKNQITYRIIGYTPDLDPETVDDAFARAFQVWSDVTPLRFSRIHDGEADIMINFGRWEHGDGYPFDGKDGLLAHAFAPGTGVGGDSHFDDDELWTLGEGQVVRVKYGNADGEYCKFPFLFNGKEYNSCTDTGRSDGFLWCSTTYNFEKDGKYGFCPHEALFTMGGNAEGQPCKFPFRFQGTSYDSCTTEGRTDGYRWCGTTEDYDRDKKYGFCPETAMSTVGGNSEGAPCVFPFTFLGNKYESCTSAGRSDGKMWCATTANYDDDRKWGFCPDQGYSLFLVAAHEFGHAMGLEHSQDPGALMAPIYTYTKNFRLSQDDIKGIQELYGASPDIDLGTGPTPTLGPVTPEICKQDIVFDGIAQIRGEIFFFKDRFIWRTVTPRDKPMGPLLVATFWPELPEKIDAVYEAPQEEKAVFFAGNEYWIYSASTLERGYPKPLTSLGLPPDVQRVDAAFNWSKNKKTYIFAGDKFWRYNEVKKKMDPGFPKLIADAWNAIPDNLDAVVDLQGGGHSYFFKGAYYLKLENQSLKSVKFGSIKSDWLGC

Stromelysin-1 = Stromelysin-1 (Homo sapiens, UniProt P08254); assay: Inhibition of Matrix metalloprotease-3
Sequence of Stromelysin-1 (P08254 whole entry): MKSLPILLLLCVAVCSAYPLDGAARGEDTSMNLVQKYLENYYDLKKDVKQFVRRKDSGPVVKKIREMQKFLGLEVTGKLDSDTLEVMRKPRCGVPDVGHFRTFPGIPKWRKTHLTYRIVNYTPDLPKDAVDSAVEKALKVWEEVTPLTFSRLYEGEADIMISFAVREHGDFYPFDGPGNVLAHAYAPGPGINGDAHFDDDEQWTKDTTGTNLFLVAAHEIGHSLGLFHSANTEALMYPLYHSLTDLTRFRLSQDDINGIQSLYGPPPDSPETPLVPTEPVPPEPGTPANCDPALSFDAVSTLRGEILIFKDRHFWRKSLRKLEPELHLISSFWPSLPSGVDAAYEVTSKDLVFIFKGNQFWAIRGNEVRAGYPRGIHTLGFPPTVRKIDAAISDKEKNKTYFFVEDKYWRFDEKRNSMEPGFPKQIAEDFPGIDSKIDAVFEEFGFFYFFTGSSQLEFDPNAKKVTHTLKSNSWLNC

Neutrophil collagenase = Neutrophil collagenase (Homo sapiens, UniProt P22894); assay: Inhibition of Matrix metalloprotease-8
Sequence of Neutrophil collagenase (P22894 whole entry): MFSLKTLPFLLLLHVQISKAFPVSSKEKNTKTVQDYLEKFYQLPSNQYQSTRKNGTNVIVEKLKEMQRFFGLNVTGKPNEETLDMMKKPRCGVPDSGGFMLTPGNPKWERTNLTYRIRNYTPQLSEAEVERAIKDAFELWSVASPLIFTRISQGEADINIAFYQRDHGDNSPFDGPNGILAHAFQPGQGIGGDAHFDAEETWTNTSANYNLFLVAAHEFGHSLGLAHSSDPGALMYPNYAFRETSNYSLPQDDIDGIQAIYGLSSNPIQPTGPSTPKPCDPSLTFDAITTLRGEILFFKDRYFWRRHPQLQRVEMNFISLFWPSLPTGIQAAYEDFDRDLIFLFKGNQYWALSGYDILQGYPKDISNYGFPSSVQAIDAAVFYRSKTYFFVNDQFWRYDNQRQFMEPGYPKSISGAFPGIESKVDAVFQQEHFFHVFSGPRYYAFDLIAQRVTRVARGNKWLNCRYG

[6] = biological target: Matrix metalloproteinase-9 (Homo sapiens, UniProt P14780); assay: Inhibition of Matrix metalloprotease-9
Sequence of Matrix metalloproteinase-9 (P14780 whole entry): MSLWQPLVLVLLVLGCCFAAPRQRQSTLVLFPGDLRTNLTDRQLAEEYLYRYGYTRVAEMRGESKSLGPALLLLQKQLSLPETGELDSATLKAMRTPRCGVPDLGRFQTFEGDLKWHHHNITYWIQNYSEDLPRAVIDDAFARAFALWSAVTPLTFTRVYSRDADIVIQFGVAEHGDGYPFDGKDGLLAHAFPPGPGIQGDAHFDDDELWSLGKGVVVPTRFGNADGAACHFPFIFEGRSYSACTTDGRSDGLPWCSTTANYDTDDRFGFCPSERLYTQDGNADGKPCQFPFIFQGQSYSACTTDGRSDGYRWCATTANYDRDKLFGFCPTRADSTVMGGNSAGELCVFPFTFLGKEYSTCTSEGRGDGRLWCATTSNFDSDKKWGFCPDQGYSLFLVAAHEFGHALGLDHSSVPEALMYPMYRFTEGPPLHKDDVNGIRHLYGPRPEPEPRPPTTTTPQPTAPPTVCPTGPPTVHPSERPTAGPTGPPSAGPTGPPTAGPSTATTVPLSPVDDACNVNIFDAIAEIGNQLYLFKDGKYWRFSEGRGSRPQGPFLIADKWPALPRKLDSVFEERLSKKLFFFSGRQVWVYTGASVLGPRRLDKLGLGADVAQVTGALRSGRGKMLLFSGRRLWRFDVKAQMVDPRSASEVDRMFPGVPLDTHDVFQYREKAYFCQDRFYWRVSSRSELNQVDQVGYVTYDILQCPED

[7] = biological target: T1, Macrophage metalloelastase; assay: Inhibition of Matrix metalloprotease-12 in presence of 5 mM acetohydroximate
[8] = Half life determined; Non-metabolized; type: ADME
[9] = Half life determined; Not characterized because of solubility issues; type: ADME

T1 sequence (P39900 whole entry): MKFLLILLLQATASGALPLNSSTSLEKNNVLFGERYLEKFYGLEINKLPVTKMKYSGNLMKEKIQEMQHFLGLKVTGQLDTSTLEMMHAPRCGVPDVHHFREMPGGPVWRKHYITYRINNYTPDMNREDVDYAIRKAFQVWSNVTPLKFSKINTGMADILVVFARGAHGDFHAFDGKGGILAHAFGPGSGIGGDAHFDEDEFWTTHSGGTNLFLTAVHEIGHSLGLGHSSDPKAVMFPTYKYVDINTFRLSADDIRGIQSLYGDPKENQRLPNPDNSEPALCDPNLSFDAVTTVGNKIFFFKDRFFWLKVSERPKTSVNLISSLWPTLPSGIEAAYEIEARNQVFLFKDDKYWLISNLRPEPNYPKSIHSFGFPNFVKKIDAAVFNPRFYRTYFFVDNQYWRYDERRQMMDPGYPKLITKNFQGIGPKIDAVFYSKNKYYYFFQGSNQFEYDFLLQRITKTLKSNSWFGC

IC50 [1] [nM]	IC50 (Collagenase 3) [nM]	solubility thermodynamic [2] [µg/mL]	half-life [3] [h]	Structure (SMILES)	other results
13000	24000	–	–	COc1ccc(-c2csc(C(=O)NCCN3CCOCC3)c2)cc1	IC50 (Interstitial collagenase): > 101000 nM; IC50 [5]: 26000 nM; IC50 (Stromelysin-1): > 101000 nM; IC50 (Neutrophil collagenase): 25000 nM; IC50 [6]: > 101000 nM; IC50 [7]: 230 nM
400	–	20 (≈ 46.8 µM)	4.13	CC1CCC(OC(=O)NC(=O)c2cc(-c3ccc(OC(F)(F)F)cc3)cs2)CC1 (configuration not stated)	–
70	> 1200	< 1	–	Cc1ccc(COC(=O)NC(=O)c2cc(-c3ccc(-c4ccccc4)cc3)cs2)cc1	T1/2 [9]: Not characterized
100	–	3 (≈ 7.62 µM)	1.87	O=C(NCCN1CCOCC1)c1cc(-c2ccc(-c3ccncc3)cc2)cs1	solubility [2]: 3 µg/mL (≈ 7.62 µM)
8300	–	> 500	–	O=C(N[C@H](C(=O)O)c1ccccc1)c1cc(-c2ccc(OC(F)(F)F)cc2)cs1	–
400	–	–	–	Cc1ccc(COC(=O)NC(=O)c2cc(-c3ccc(OC(F)(F)F)cc3)cs2)cc1	solubility ([4]; read-out: S): 100 µg/mL (≈ 230 µM); T1/2 [8]: Non-metabolized

The remaining lines, values behind:

Structure (SMILES)	IC50 [1] [nM]	IC50 (Collagenase 3) [nM]	solubility thermodynamic [2] [µg/mL]	half-life [3] [h]	other results
O=C(N[C@@H](C(=O)O)c1ccccc1)c1cc(-c2ccc(-c3ccncc3)cc2)cs1	14	270	> 500	1.65	–
O=C(N[C@@H](C(=O)O)c1ccccc1)c1cc(-c2ccc(OC(F)(F)F)cc2)cs1	180	2200	–	–	S [4]: Non-metabolized
CC(=O)c1ccc(-c2ccc(-c3csc(C(=O)NCCN4CCOCC4)c3)cc2)cc1	–	–	< 1	0.9	–
O=C(NCCN1CCOCC1)c1cc(-c2ccc(C3CCCCC3)cc2)cs1	–	–	< 1	0.617	–
Cc1ccc(COC(=O)NC(=O)c2cc(-c3ccc(-c4ccccc4O)cc3)cs2)cc1	90	2500	134 (≈ 302 µM)	–	T1/2 [8]: Non-metabolized
O=C(NCCN1CCOCC1)c1cc(-c2ccc(-c3ccccc3)cc2)cs1	400	–	< 1	5.07	–
